Results as given in ChEMBL document CHEMBL1201862, “PubChem BioAssay data set” (2004).
Where “and” joins values, the source holds several entries; their conditions need not be identical. Equal entries are not always repeated. Calls of active or inactive are those of the source. Cut-off read from the data, not from the text of the source, for most assays here: actives have a measured EC50 and inactives only a lower limit.

Legend:
[1] = molecular target: Cytochrome P450 3A4 (Homo sapiens, UniProt P08684);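 note: CYP3A4 tested as one member of a cytochrome P450 panel screen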
[2] = cytotoxicity toward NIH3T3 fibroblasts, dose response, counter-screen, cell-based, ATP luminescence, mouse fibroblasts (AID 2010); assay type: functional;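 note: cells exposed to compound for about 90 hours before reading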
[3] = inhibitors of intracellular T. cruzi replication, confirmation, NIH3T3 host cells, beta-gal luminescence (AID 2044); assay type: functional, cell-based;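 note: intracellular parasites grown in NIH/3T3 mouse fibroblasts as host cells; luminescent beta-galactosidase reporter signal from transgenic T. cruzi replicating inside host cells; inhibitors lower the luminescence signal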
[4] = molecular target: T1, Streptokinase A (Streptococcus pyogenes serotype M1, UniProt P10520); assay: S. pyogenes streptokinase expression inhibitors, potency, dose response, plasminogen activation absorbance, OD405 (AID 1914); assay type: functional, Streptococcus pyogenes M1 GAS;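 note: secreted streptokinase activity via plasminogen activation per viability signal from cell pellet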
T1 sequence (P10520 whole entry): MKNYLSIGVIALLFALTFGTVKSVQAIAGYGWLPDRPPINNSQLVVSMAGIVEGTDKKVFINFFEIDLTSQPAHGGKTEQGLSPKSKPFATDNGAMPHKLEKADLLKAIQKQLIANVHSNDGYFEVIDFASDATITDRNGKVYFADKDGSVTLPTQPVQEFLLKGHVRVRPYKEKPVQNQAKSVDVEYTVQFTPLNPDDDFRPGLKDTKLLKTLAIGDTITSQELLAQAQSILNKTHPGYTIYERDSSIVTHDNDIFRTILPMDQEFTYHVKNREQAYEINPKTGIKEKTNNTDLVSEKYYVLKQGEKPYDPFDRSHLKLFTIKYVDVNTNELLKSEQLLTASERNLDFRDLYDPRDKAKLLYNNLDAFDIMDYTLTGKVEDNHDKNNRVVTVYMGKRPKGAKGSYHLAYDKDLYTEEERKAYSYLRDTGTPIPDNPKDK

[5] = tested on: Streptococcus sp. 'group A'; assay: growth inhibition of control SK(-) GAS strain, dose response, counter-screen for streptokinase expression inhibitor project, luminescence, kanamycin, BacTiterGlo, confirmation (AID 1900); assay type: functional, organism-based
[6] = tested on: Streptococcus; assay: Group A Streptococcus viability loss, dose response, counter-screen for streptokinase expression inhibitor project, luminescence, BacTiterGlo (AID 1915); assay type: functional, organism-based;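 note: potency for reduction of bacterial viability or growth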
[7] = molecular target: T2, Heat shock factor protein 1 (Mus musculus, UniProt P38532); assay: inhibition of MG132-induced HSE-luciferase signal, confirmation, cell-based, NIH3T3, luminescence, dose retest (AID 2382); assay type: functional;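 note: NIH3T3 fibroblasts with HSF1-driven luciferase reporter stressed by proteasome inhibitor MG132; luminescence from HSF1-driven luciferase expression after 8 hours of MG132 stress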
T2 sequence (P38532 whole entry): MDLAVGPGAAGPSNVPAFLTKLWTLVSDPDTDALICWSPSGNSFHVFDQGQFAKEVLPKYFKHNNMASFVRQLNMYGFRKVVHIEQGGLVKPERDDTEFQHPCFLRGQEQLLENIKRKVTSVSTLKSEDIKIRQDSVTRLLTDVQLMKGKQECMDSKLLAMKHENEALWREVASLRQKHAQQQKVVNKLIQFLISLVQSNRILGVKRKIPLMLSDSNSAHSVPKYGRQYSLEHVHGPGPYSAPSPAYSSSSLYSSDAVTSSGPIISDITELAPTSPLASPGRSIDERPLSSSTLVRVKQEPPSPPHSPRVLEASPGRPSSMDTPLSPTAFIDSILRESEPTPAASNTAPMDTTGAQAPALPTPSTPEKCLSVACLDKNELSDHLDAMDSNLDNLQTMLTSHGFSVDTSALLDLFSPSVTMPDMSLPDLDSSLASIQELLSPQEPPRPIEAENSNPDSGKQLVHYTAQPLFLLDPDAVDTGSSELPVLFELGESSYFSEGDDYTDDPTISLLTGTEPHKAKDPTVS

[8] = tested on: INS1; assay: beta cell apoptosis inhibitors, cytokine rescue, dose response, luminescence, retest (AID 449756); assay type: functional, cell-based; settings: Rattus norvegicus;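 note: cell death triggered by IL-1 beta plus TNF-alpha plus IFN-gamma mixture; protective hits raise ATP signal compared with cytokine alone wells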
[9] = HEp-2 cell cytotoxicity, dose response, cytotoxicity control for RSV inhibitor project, HTS (AID 2410); assay type: functional; settings: human respiratory syncytial virus

Chain of Cytochrome P450 3A4 (P08684 whole entry): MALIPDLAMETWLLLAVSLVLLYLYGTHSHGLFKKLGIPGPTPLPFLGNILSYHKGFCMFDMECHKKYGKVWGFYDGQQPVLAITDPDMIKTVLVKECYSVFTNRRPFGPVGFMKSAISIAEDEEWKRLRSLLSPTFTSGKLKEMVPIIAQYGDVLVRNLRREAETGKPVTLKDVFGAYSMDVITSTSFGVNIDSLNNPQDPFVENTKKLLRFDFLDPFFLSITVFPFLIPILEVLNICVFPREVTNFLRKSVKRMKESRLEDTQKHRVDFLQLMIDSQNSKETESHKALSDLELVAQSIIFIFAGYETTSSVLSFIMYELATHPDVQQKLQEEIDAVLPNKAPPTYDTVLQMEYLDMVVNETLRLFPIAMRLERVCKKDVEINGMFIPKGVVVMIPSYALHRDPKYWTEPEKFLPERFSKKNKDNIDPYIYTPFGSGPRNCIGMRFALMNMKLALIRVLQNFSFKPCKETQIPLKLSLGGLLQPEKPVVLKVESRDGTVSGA

Cc1ccc([C@@H](O)c2cnc(C)n2Cc2ccccc2)cc1
AC50 [1]: 5.01 µM (inconclusive)

C[C@@H](c1ccccc1)N1C(=O)[C@H]2[C@H]3[C@H](O)[C@H](O)C/C(=N/OCc4ccccc4)[C@H]3CC[C@@H]2C1=O
AC50 [1]: 3.16 µM (inconclusive)

COc1ccc(OC)c(C2/C(=C(\O)c3ccccc3)C(C)=Nc3nc4ccccc4n32)c1 (stereo unspecified)
EC50 [2]: > 60 µM (not active)
EC50 [3]: 1.51 µM (active)

Cn1c(=O)c2nc(CCCc3ccc([N+](=O)[O-])cc3)[nH]c2n(C)c1=O
AC50 [1]: 3.98 µM (inconclusive)

O=C(CN(C(=O)Cn1nnc(-c2ccccc2F)n1)c1cccc2c1CCCC2)NCc1ccccc1
EC50 [4]: > 150 µM (not active)
EC50 [5]: 11.2 µM (active)
EC50 [6]: > 150 µM (not active)

Cc1c(-c2ccccc2)[n+]([O-])c2c([n+]1[O-])CCC2
EC50 [7]: > 195 µM (not active)

NC(=O)c1ccsc1NC(=O)C1CCCCC1
EC50 [7]: > 195 µM (not active)

Cc1ccc(S(=O)(=O)N(C)c2ccccc2C(=O)NC2CCCC2)cc1
EC50 [7]: > 195 µM (not active)

COc1ccc(N2C(=O)CC(c3ccc(OC(C)C)cc3)C2=O)cc1 (stereo unspecified)
EC50 [7]: > 195 µM (not active)

NC(=O)COC(=O)c1ccccc1Oc1ccccc1
EC50 [7]: > 195 µM (not active)

Cc1cc(C)cc(N(C(=O)Cc2cccs2)C(C(=O)NC2CCCCC2)c2ccccn2)c1 (stereo unspecified)
AC50 [1]: 0.891 µM (inconclusive)

CC(Sc1nnnn1C)C(=O)Nc1ccc(Oc2ccccc2)cc1 (stereo unspecified)
EC50 [7]: > 195 µM (not active)

CCCCn1c(SCC(=O)NCc2ccco2)nc2c(sc3ccccc32)c1=O
EC50 [7]: > 195 µM (not active)

CCOC(=O)CSc1ccc(C(=O)NCCCN2CCOCC2)cc1[N+](=O)[O-]
EC50 [7]: > 195 µM (not active)

O=C(c1ccco1)N(Cc1cc2ccccc2nc1O)C1CCCCC1
EC50 [7]: > 195 µM (not active)

CCN(CC)P(=O)(Nc1ccc(C)cc1Br)c1ccc(N(C)C)cc1NC(=O)c1ccco1 (stereo unspecified)
EC50 [2]: > 60 µM (inconclusive)
EC50 [3]: 2.27 µM (active)

Cc1ccc(C)c(CN2CCCN(Cc3cc(C)ccc3C)S2(=O)=O)c1
EC50 [4]: 19.7 µM (active)
EC50 [5]: 19.8 µM (active)
EC50 [6]: > 150 µM (not active)

O=C(c1ccc(Cl)cc1Cl)C1(n2cncn2)Oc2ccccc2C1O (stereo unspecified)
EC50 [2]: 18 µM (active)
EC50 [3]: 0.535 µM (active)

CCOP(=O)(OCC)c1nc(-c2cccc3ccccc23)oc1NCc1ccc(OC)cc1
EC50 [2]: > 60 µM (not active)
EC50 [3]: 2.45 µM (active)

O=C(c1cc(-c2ccc(Br)cc2)nc2ccccc12)N1CCN(c2ccccc2O)CC1
EC50 [4]: 29.2 µM (active)
EC50 [5]: 7.53 µM (active)
EC50 [6]: 25.4 µM (inconclusive)

Cc1cc(C)n(C(=O)CNC(=O)Cc2ccccc2)n1
EC50 [7]: > 195 µM (not active)

COc1ccc(S(=O)(=O)NCC(c2cccnc2)N2CCN(C)CC2)cc1OC (stereo unspecified)
EC50 [7]: > 195 µM (not active)

O=C(CCc1nnc2ccc(N3CCC4(CC3)OCCO4)nn12)NCc1ccc(F)cc1
EC50 [7]: > 195 µM (not active)

O=C(CN1CC=C(c2ccccc2)CC1)NC(=O)NCc1ccccc1
EC50 [7]: > 195 µM (not active)

NC=C1C(=O)N(c2ccccc2)C(=O)N(c2ccccc2)C1=O
EC50 [7]: > 195 µM (not active)

CO[C@H]1COC(=O)C/C=C\[C@@H](C)COC(=O)[C@@H](CCSC)NC(=O)C/C=C\[C@@H]1C
AC50 [1]: 3.98 µM (inconclusive) and 5.01 µM (inconclusive)

CCOC(=O)N1CCN(CC(O)COCCC23CC4CC(CC(C4)C2)C3)CC1 (stereo unspecified)
EC50 [2]: > 30 µM (not active)
EC50 [3]: 1.16 µM (active)

CCCCc1ccc(NC(S)=NCc2cccs2)cc1
EC50 [2]: > 60 µM (not active)
EC50 [3]: 2.6 µM (active)

CCc1nc(SCC(=O)NCCc2ccc(OC)c(OC)c2)c2c(=O)n(C)c(=O)n(C)c2n1
EC50 [7]: > 195 µM (not active)

COCC(=O)N1CCC[C@@]2(CCN(Cc3ccccc3)C2)C1
AC50 [1]: 25.1 µM (inconclusive)

CCC(C)C(NC(=O)C1CCC(=O)N1C(=O)OCc1ccccc1)C(=O)NC(C(=O)N1CCCC1C(N)=O)C(C)CC (stereo unspecified)
EC50 [7]: > 195 µM (not active)

C=CCOc1ccccc1CN1CCCC(CCC(=O)N(C)CCc2ccccn2)C1 (stereo unspecified)
EC50 [2]: > 60 µM (not active)
EC50 [3]: 0.412 µM (active)

Cc1ccc(NC(=O)CCN2CCCCC2)cc1
EC50 [7]: 4.53 µM (active)

O=C(O)CC1SC(=O)N(Cc2ccccc2)C1=O (stereo unspecified)
EC50 [7]: > 195 µM (not active)

CCOc1cc(C(=O)NCc2ccccc2)ccc1OCC(=O)N1CCOCC1
EC50 [7]: > 195 µM (not active)

O=c1[nH]c(NCCCO)nc2c1C1(CCCC1)Cc1ccccc1-2
AC50 [8]: > 260 µM (inactive)

CN1/C(=C\C(=O)Nc2ccc(Cl)cc2)C(C)(C)c2ccccc21
EC50 [4]: > 150 µM (not active)
EC50 [5]: 9.32 µM (active)
EC50 [6]: 11.5 µM (active)

C=CCn1c(SCN2C(=O)c3ccccc3C2=O)nc2ccc(Cl)cc2c1=O
AC50 [8]: 7.25 µM (active)

Oc1nc2ccccc2n2cnnc12
EC50 [7]: > 195 µM (not active)

CC(C)CN(C(=O)COC(=O)c1ccc([N+](=O)[O-])s1)c1c(N)n(Cc2ccccc2)c(=O)[nH]c1=O
EC50 [2]: 4.8 µM (active)
EC50 [3]: 1.06 µM (active)

O=C(c1cnccn1)N1CCC[C@@]2(CCN(c3ncccn3)C2)C1
AC50 [1]: 15.8 µM (inconclusive)

Cc1c(C(=O)NCc2ccc3c(c2)OCO3)sc2nc(-c3ccccc3)cn12
EC50 [7]: > 195 µM (not active)

COc1ccccc1C(=O)NCCC(=O)NNC(=O)Cn1ccc(C(F)(F)F)n1
EC50 [7]: > 195 µM (not active)

CSc1nc(SCC(=O)NC(c2ccccc2)c2ccccc2)c2c3c(sc2n1)CN(C)CC3
EC50 [2]: > 60 µM (not active)
EC50 [3]: 0.237 µM (active)

CCc1c(C)nc2cc(-c3ccc(OC)c(OC)c3)nn2c1N1CCC(C)CC1
EC50 [4]: 16.6 µM (active)
EC50 [5]: 5.05 µM (active)
EC50 [6]: 14.7 µM (active)

O=C(CN1CCN(c2cccc(C(F)(F)F)c2)CC1)Nc1cccc(C(F)(F)F)c1
CC50 [9]: > 50 µM (active)

COc1ccc(C(=O)N(C)c2ccccc2C(=O)NCCc2ccccc2)cc1
AC50 [8]: 4.32 µM (active)

CC1CC(c2ccccc2)n2nc(NC(=O)c3cccs3)nc2N1 (stereo unspecified)
EC50 [7]: > 195 µM (not active)

COc1ccc2[nH]cc(CCNc3ncnc4ccc(-c5ccccc5OC)cc34)c2c1
AC50 [1]: 0.794 µM (inconclusive)

Cc1ccc(-n2c(O)cnc2Nc2nc(C)cc(C)n2)cc1
AC50 [1]: 31.6 µM (inconclusive)

CC1(C(=O)OCC(=O)Nc2nc(-c3ccc(F)c(F)c3)cs2)CC1(Cl)Cl (stereo unspecified)
EC50 [4]: 7.2 µM (active)
EC50 [5]: 8.61 µM (active)
EC50 [6]: 11.8 µM (active)

CCCC(=O)NC(N=C(S)Nc1ccc(N=Nc2ccccc2)cc1)C(Cl)(Cl)Cl (stereo unspecified)
AC50 [8]: 5.34 µM (active)

N=C(NOC(=O)c1cccc(Cn2cc(C(F)(F)F)ccc2=O)c1)c1ccc(Cl)cc1
AC50 [8]: 12.4 µM (active)

COc1ccccc1OCC(=O)Nc1c2c(nn1-c1ccc(F)cc1)CS(=O)(=O)C2
EC50 [4]: > 150 µM (not active)
EC50 [5]: > 150 µM (not active)
EC50 [6]: > 150 µM (not active)

CCNC(=O)NC(=O)c1csc([N+](=O)[O-])c1
EC50 [2]: > 30 µM (not active)
EC50 [3]: 0.415 µM (active)

CCN(CC)CCOCCOc1cc(C)c(Cl)c(C)c1
EC50 [2]: 9.47 µM (active)
EC50 [3]: 0.408 µM (active)

CN(C)c1ccc(-c2nc(N3CCNCC3)c3ccccc3n2)cc1
AC50 [1]: 31.6 µM (inconclusive)

CC(/C=N/NC(=O)c1nnn(-c2nonc2N)c1C(C)C)=C\c1ccccc1
CC50 [9]: 39.5 µM (active)

C/C(=N/NC(=S)Nc1cccc(C)c1)c1cccc([N+](=O)[O-])c1
EC50 [2]: > 60 µM (not active)
EC50 [3]: 1.63 µM (active)

c1ccc(/C(=N/Nc2nc3ccccc3s2)c2ccccn2)cc1
AC50 [1]: 3.98 µM (inconclusive)

Cc1cc(/C=N/N2CCN(C)CC2)c(C)n1-c1ccccc1F
EC50 [2]: > 60 µM (not active)
EC50 [3]: 1.81 µM (active)

COc1cc2c(-c3ccccc3)c(C)oc2cc1/C=N/NC(N)=S
EC50 [2]: > 60 µM (not active)
EC50 [3]: 0.102 µM (active)

C/C(=N\OC(=O)NC(C)C)c1sc(-c2ccc(Cl)cc2)nc1C
AC50 [1]: 31.6 µM (inconclusive)
